In ChEMBL document CHEMBL1130634, “Quinazolines: combined type 3 and 4 phosphodiesterase inhibitors” (Bioorg Med Chem Lett, 1998):

Legend:
[1] = molecular target: T1, 3',5'-cyclic-AMP phosphodiesterase 4A (Homo sapiens, UniProt P27815); assay: Evaluated for its ability to inhibit PDE4A.
[2] = molecular target: T2, 3',5'-cyclic-AMP phosphodiesterase 4B (Rattus norvegicus, UniProt P14646); assay: Evaluated for its ability to inhibit PDE4B.
T2 sequence (P14646 whole entry): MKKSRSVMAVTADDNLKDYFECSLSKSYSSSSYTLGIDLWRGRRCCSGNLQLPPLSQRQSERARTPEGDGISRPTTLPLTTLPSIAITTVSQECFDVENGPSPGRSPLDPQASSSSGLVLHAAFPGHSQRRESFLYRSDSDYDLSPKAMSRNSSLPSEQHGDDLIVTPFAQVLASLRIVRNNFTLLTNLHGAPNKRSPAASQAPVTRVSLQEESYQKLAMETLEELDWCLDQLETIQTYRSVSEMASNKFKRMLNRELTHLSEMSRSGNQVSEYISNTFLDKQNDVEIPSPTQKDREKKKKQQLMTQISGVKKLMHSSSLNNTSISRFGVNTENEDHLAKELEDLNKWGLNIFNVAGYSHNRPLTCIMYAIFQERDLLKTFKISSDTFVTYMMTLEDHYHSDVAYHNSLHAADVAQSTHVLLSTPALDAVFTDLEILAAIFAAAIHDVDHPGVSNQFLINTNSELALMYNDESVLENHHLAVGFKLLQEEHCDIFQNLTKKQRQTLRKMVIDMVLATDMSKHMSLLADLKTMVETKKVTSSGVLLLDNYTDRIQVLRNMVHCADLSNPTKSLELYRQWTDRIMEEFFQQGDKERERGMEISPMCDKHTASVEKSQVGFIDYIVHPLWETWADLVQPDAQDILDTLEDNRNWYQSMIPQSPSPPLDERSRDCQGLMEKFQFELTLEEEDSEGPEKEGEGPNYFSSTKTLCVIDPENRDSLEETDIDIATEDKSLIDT

[3] = molecular target: 3',5'-cyclic-AMP phosphodiesterase 4D (Homo sapiens, UniProt Q08499); assay: Evaluated for its ability to inhibit PDE4D.
[4] = molecular target: T1, 3',5'-cyclic-AMP phosphodiesterase 4A; assay: Inhibition of PDE4A
Phosphodiesterase 4 [5] = molecular target: T3, Phosphodiesterase 4 (Rattus norvegicus, UniProt P14270+P14646+P14644+P54748); assay: Inhibition of [3H]-rolipram binding to membrane-bound PDE4
Phosphodiesterase 3 = Phosphodiesterase 3 (Homo sapiens, UniProt Q14432+Q13370); assay: Evaluated for its ability to inhibit PDE3.; type: protein assay
Phosphodiesterase 4 [6] = molecular target: T3, Phosphodiesterase 4; assay: Evaluated for the inhibition of [3H]rolipram binding to membrane-bound PDE4.

T1 sequence (P27815 whole entry): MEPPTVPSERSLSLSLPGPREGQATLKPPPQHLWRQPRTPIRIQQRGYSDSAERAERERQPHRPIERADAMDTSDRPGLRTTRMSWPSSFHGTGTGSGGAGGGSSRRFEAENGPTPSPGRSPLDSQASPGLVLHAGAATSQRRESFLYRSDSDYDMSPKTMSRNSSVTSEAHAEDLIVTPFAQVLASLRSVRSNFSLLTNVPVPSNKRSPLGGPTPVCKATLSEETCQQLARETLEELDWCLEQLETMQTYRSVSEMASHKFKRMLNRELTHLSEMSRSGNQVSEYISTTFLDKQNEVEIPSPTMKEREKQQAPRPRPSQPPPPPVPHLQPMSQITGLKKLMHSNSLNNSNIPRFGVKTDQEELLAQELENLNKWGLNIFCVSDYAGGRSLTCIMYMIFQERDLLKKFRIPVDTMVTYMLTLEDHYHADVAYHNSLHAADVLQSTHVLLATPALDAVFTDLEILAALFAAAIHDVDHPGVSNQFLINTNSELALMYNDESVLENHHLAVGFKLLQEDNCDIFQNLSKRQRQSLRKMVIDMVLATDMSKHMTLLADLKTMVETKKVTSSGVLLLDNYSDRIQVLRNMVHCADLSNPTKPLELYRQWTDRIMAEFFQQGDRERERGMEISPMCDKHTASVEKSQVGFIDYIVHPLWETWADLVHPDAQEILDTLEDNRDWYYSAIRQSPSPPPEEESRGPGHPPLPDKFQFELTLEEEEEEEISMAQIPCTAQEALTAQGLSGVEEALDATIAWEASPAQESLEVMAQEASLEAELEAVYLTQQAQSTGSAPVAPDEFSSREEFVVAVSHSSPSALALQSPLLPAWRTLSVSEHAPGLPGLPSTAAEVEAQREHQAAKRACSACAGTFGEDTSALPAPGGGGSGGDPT
3',5'-cyclic-AMP phosphodiesterase 4D, sequence (Q08499 whole entry): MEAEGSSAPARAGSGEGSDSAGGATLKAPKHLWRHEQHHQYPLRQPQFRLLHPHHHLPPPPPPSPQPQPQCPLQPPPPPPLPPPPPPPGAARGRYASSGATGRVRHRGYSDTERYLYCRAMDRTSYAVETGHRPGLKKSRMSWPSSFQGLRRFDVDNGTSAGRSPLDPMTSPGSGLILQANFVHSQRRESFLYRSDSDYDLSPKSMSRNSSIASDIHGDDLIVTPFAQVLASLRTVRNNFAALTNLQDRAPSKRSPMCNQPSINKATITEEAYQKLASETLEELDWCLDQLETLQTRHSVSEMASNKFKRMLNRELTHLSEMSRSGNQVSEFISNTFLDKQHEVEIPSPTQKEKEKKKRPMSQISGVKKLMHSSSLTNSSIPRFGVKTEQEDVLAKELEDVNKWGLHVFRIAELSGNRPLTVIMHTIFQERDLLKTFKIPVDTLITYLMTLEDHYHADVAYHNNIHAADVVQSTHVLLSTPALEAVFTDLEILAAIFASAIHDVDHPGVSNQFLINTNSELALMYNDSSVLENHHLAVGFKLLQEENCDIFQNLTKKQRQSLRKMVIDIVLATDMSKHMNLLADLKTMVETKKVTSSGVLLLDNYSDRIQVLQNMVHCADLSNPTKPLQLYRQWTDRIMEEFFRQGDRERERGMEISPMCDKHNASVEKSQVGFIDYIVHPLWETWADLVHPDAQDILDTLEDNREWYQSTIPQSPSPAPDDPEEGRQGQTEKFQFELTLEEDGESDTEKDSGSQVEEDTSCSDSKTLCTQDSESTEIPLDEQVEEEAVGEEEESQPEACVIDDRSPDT

| SMILES | IC50 [1] [nM] | IC50 [2] [nM] | IC50 [3] [nM] | IC50 [4] [µM] | IC50 (Phosphodiesterase 4 [5]) [µM] | IC50 (Phosphodiesterase 3) [µM] | IC50 (Phosphodiesterase 4 [6]) [µM] |
| --- | --- | --- | --- | --- | --- | --- | --- |
| CCc1nc(-c2cc(OCC3CC3)cc(OCC3CC3)c2)c2ccc(OCCO)cc2n1 | 630 | 660 | 850 |  |  |  |  |
| CCc1nc(-c2cc(OCC3CC3)cc(OCC3CC3)c2)c2cc(OCCO)c(OCCO)cc2n1 | > 100000 | > 100000 | > 100000 |  |  |  |  |
| COc1cc2nc(C)nc(-c3cc(O)cc(O)c3)c2cc1OC |  | 14000 | 2000 | 23.5 |  |  |  |
| CCCCc1nc(-c2cc(OCC3CC3)cc(OCC3CC3)c2)c2cc(OC)c(OCCO)cc2n1 | 1300 | 300 | 300 |  | 0.05 | 0.72 |  |
| COc1nc(-c2cc(OCC3CC3)cc(OCC3CC3)c2)c2cc(OC)c(OCCO)cc2n1 | 130 | 110 | 140 |  |  | 0.39 | 0.21 |
| COc1cc2nc(C)nc(-c3cc(OC(C)C)cc(OC(C)C)c3)c2cc1OC | 2300 | 1300 | 1200 |  |  |  |  |
| COc1cc2c(-c3cc(OCC4CC4)cc(OCC4CC4)c3)nc(-c3cc(OCC4CC4)cc(OCC4CC4)c3)nc2cc1OCCO | 14000 | 22000 | 8500 |  |  | 7.8 |  |
| CCc1nc(-c2cc(OCC3CC3)cc(OCC3CC3)c2)c2cc(OC)c(O)cc2n1 | 3300 | 2400 | 650 |  |  |  |  |
| COc1cc2c(-c3cc(OCC4CC4)cc(OCC4CC4)c3)nc(-c3cccs3)nc2cc1OCCO | 5400 | 1300 | 3000 |  |  |  |  |
| COc1cc2nc(C)nc(-c3cc(OCC4CC4)cc(OCC4CC4)c3)c2cc1OC | 900 | 650 | 800 |  |  |  |  |
| COc1cc2c(-c3cc(OCC4CC4)cc(OCC4CC4)c3)nc(OCCCO)nc2cc1OCCO | 250 | 200 | 130 |  |  | 0.31 | 0.145 |
| CCOC(=O)COc1cc2nc(C)nc(-c3cc(OCC4CC4)cc(OCC4CC4)c3)c2cc1OC | > 10000 | 61000 | > 100000 |  |  | 0.7 |  |
| CCOc1nc(-c2cc(OCC3CC3)cc(OCC3CC3)c2)c2cc(OC)c(OCCO)cc2n1 | 85 | 70 | 60 |  |  | 0.34 | 0.043 |
| COc1cc2c(-c3cc(OCC4CC4)cc(OCC4CC4)c3)nc(NCCCO)nc2cc1OCCO | 500 | 340 | 230 |  |  | 0.43 | 0.2 |
| CCc1nc(-c2cc(OCC3CC3)cc(OCC3CC3)c2)c2cc(OC)c(OCCO)cc2n1 | 30 | 25 | 22 |  |  | 0.016 | 0.015 |
| CCc1nc(-c2cc(OCC3CC3)cc(OCC3CC3)c2)c2cc(OC)c(OCC3CC3)cc2n1 | 2900 | 600 | 540 |  |  |  |  |
| COc1cc2c(-c3cc(OCC4CC4)cc(OCC4CC4)c3)nc(OCCO)nc2cc1OCCO | 70 | 80 | 90 |  |  | 0.43 |  |
| COc1cc2c(-c3cc(OCC4CC4)cc(OCC4CC4)c3)nc(N3CCOCC3)nc2cc1OCCO | 3300 | 2500 | 1200 |  |  |  |  |
| CCSc1nc(-c2cc(OCC3CC3)cc(OCC3CC3)c2)c2cc(OC)c(OCCO)cc2n1 | 540 | 440 | 700 |  |  |  |  |
| CCc1nc(-c2cc(OCC3CC3)cc(OCC3CC3)c2)c2cc(OC)c(OCc3ccccc3)cc2n1 | > 100000 | > 100000 | > 100000 |  |  |  |  |
